Assay results reported in ChEMBL document CHEMBL1201862, “PubChem BioAssay data set” (2004).
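Assay format: 96-well plates, 48-hour exposure. GI50 is the concentration that inhibits growth by half.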 Active and inactive are the calls of the source. Cut-off read from the data, not from the text of the source: active = GI50 up to about 1.1 µM and inactive = higher.

Experiments:
Assay in all cases: NCI anticancer screen, dose series, 48 h
MCF7 = system: MCF7
PC-3 = system: PC-3
K562 = system: K562
SK-OV-3 = system: SK-OV-3
SK-MEL-2 = system: SK-MEL-2
CAKI-1 = system: CAKI-1
SR = system: SR
HL-60 = system: HL-60
HCC 2998 = system: HCC 2998
DU-145 = system: DU-145
MDA-MB-231 = system: MDA-MB-231
NCI/ADR-RES = system: NCI/ADR-RES
IGROV-1 = system: IGROV-1
TK-10 = system: TK-10
BT-549 = system: BT-549
NCI-H460 = system: NCI-H460
ACHN = system: ACHN
MDA-N = system: MDA-N
OVCAR-8 = system: OVCAR-8

Measured: GI50

CCOC(=O)NC
inactive: MCF7 > 100 µM | PC-3 > 100 µM | K562 > 100 µM | SK-OV-3 > 100 µM | SK-MEL-2 > 100 µM | CAKI-1 > 100 µM | SR > 100 µM | HL-60 > 100 µM | HCC 2998 > 100 µM | DU-145 > 100 µM | MDA-MB-231 > 100 µM | NCI/ADR-RES > 100 µM | IGROV-1 > 100 µM | TK-10 > 100 µM | BT-549 > 100 µM | NCI-H460 > 100 µM | ACHN > 100 µM | MDA-N > 100 µM

Cc1[nH]c2ccccc2c1-c1cc(-c2cc(-c3c(C)[nH]c4ccccc34)on2)no1
inactive: MCF7 55 µM | PC-3 63 µM | K562 56.6 µM | SK-OV-3 77.6 µM | SK-MEL-2 > 100 µM | CAKI-1 76.2 µM | SR 38.8 µM | HL-60 34.5 µM | HCC 2998 61 µM | DU-145 > 100 µM | MDA-MB-231 > 100 µM | NCI/ADR-RES > 100 µM | IGROV-1 56.8 µM | TK-10 > 100 µM | OVCAR-8 > 100 µM | BT-549 > 100 µM | NCI-H460 42 µM | ACHN > 100 µM | MDA-N 21 µM

Nc1nc(Cl)cc(NCC2(O)CC(CO)C2)n1 (stereo not drawn)
inactive: MCF7 > 100 µM | PC-3 > 100 µM | K562 > 100 µM | SK-OV-3 > 100 µM | SK-MEL-2 > 100 µM | CAKI-1 > 100 µM | SR > 100 µM | HL-60 > 100 µM | HCC 2998 > 100 µM | DU-145 > 100 µM | MDA-MB-231 > 100 µM | NCI/ADR-RES > 100 µM | IGROV-1 > 100 µM | TK-10 > 100 µM | OVCAR-8 > 100 µM | BT-549 > 100 µM | NCI-H460 > 100 µM | ACHN > 100 µM | MDA-N > 100 µM

C[C@]12CC[C@@H]3c4ccc(OC(=O)c5ccccc5)cc4CC[C@H]3[C@@H]1CC[C@@H]2Oc1c2ccccc2nc2ccccc12
inactive: MCF7 17 µM | PC-3 8.93 µM | K562 6.38 µM | SK-OV-3 20.7 µM | SK-MEL-2 16.2 µM | CAKI-1 9.73 µM | SR 10 µM | HL-60 2.95 µM | HCC 2998 7.05 µM | DU-145 9.23 µM | MDA-MB-231 11.5 µM | NCI/ADR-RES 11.4 µM | IGROV-1 12.5 µM | TK-10 17.2 µM | OVCAR-8 13 µM | BT-549 9.98 µM | NCI-H460 8.53 µM | ACHN 37 µM | MDA-N 3.53 µM

COCCN(C(C)=O)C1CCC2(SCCS2)c2[nH]c3ccccc3c21 (stereo not drawn)
inactive: MCF7 > 100 µM | PC-3 > 100 µM | K562 > 100 µM | CAKI-1 > 100 µM | SR 42.5 µM | HL-60 > 100 µM | HCC 2998 > 100 µM | DU-145 > 100 µM | MDA-MB-231 > 100 µM | NCI/ADR-RES > 100 µM | IGROV-1 > 100 µM | TK-10 > 100 µM | OVCAR-8 > 100 µM | BT-549 > 100 µM | NCI-H460 77.6 µM | ACHN > 100 µM | MDA-N > 100 µM

CCOC(=O)c1cc(C(O)P2(=O)N(CC(C)(C)C)[C@@H]3CCCC[C@H]3N2CC(C)(C)C)cn1C(=O)OC(C)(C)C (stereo partly drawn)
inactive: MCF7 18.7 µM | PC-3 15.9 µM | K562 20.1 µM | SK-OV-3 20 µM | SK-MEL-2 17.7 µM | CAKI-1 14.8 µM | SR 10.2 µM | HL-60 24.5 µM | HCC 2998 16.2 µM | DU-145 16.6 µM | MDA-MB-231 16 µM | NCI/ADR-RES 16.8 µM | IGROV-1 4.8 µM | TK-10 22.6 µM | OVCAR-8 24.8 µM | BT-549 17 µM | ACHN 28.1 µM | MDA-N 14.8 µM

Cc1ccc(NC(=O)c2cc(S(=O)(=O)N3CCNNC3=O)c(S)cc2Cl)cc1
inactive: MCF7 > 100 µM | PC-3 > 100 µM | K562 56.5 µM | SK-MEL-2 > 100 µM | CAKI-1 > 100 µM | SR > 100 µM | HL-60 > 100 µM | HCC 2998 > 100 µM | DU-145 > 100 µM | MDA-MB-231 > 100 µM | NCI/ADR-RES > 100 µM | IGROV-1 > 100 µM | TK-10 93.8 µM | OVCAR-8 > 100 µM | BT-549 28.9 µM | NCI-H460 > 100 µM | ACHN > 100 µM | MDA-N > 100 µM
